Results as given in US12180223B2 (Boehringer Ingelheim International GmbH, priority 2021, dated 2024).

Tests used:
[1] = Assay C: Hepatocyte clearance; assay type: in vitro ADME, human; conditions: compounds of the invention; hepatocyte suspension, 5% species serum, test compound 1 μM, six hours
Method: Evaluation of Hepatocyte Clearance Assay C: Hepatocyte Clearance
The metabolic degradation of the test compound is assayed in a hepatocyte suspension. Hepatocytes (cryopreserved) are incubated in Dulbecco's modified eagle medium (supplemented with 3.5 μg glucagon/500 mL, 2.5 mg insulin/500 mL and 3.75 mg/500 mL hydrocortisone) containing 5% species serum.
The cells are incubated for six hours (incubator, orbital shaker) and samples (25 μl) are taken at 0, 0.5, 1, 2, 4 and 6 hours. Samples are transferred into acetonitrile and pelleted by centrifugation (5 min). The supernatant is transferred to a new 96-deepwell plate, evaporated under nitrogen and resuspended.
Decline of parent compound is analyzed by HPLC-MS/MS
CLint is calculated as follows CL_[…]=Dose/AUC=(C0/CD)/(AUD+clast/k)×1000/60. C0: initial concentration in the incubation [μM], CD: cell density of vital cells [10e6 cells/mL], AUD: area under the data [μM×h], clast: concentration of last data point [μM], k: slope of the regression line for parent decline [h−1].
The calculated in vitro hepatic intrinsic clearance can be scaled up to the intrinsic in vivo hepatic Clearance and used to predict hepatic in vivo blood clearance (CL) by the use of a liver model (well stirred model).

[2] = Assay B: Microsomal clearance; assay type: in vitro ADME, human; conditions: compounds of the invention; pooled liver microsomes 1 mg/ml, test compound 1 μM, NADPH, 37° C.
Method: Evaluation of Microsomal Clearance Assay B: Microsomal Clearance:
The metabolic degradation of the test compound is assayed at 37° C. with pooled liver microsomes. The final incubation volume of 100 μl per time point contains TRIS buffer pH 7.6 at RT (0.1 M), magnesium chloride (5 mM), microsomal protein (1 mg/ml) and the test compound at a final concentration of 1 μM.
Following a short preincubation period at 37° C., the reactions are initiated by addition of beta-nicotinamide adenine dinucleotide phosphate, reduced form (NADPH, 1 mM) and terminated by transferring an aliquot into solvent after different time points (0, 5, 15, 30, 60 min). Additionally, the NADPH-independent degradation is monitored in incubations without NADPH, terminated at the last time point. The [%] remaining test compound after NADPH independent incubation is reflected by the parameter c(control) (metabolic stability). The quenched incubations are pelleted by centrifugation (10000 g, 5 min). An aliquot of the supernatant is assayed by LC-MS/MS for the amount of parent compound. The half-life (t½ INVITRO) is determined by the slope of the semilogarithmic plot of the concentration-time profile.

human TRPA1 ion channel = target: T1, human TRPA1 ion channel (Homo sapiens, UniProt O75762); test: Assay A: TRPA1 assay (FLIPR calcium, AITC agonism, HEK293 over-expressing human TRPA1); assay type: cell-based; conditions: read-out: hTRPA1 IC50
T1 construct: host or cells: HEK293
Method: A human HEK293 cell line over-expressing the human TRPA1 ion channel (Perkin Elmer, Product No. AX-004-PCL) is used as a test system for compound efficacy and potency. Compound activity is determined by measuring the effect of compounds on intracellular calcium concentration induced by AITC (Allylisothiocyanate) agonism in a FLIPRtetra system (Molecular Devices).
The cells are obtained as frozen cells in cryo-vials and stored until use at −150° C. Cells are grown in culture medium (MEM/EBSS medium with 10% FCS and 0.4 mg/ML Geneticin). […] For sub-culturing cells are detached from flasks by Versene. At the day before the assay, cells are detached, washed twice with medium (MEM/EBSS medium with 10% FCS) and 20000 cells in 20 μl/well are seeded to Poly D-Lysin biocoated 384-well plates (black, clear bottom, Cat. 356697) from Corning. Plates are incubated for 24 hours at 37° C./5% CO2 before use in the assay.
The test compounds are dissolved in 100% DMSO at a concentration of 10 mM and in a first step diluted in DMSO to a concentration of 5 mM, followed by serial dilution steps in 100% DMSO. Dilution factor and number of dilution steps may vary according to needs. Typically 8 different concentrations by 1:5 dilutions are prepared, further intermediate dilutions (1:20) of the substances are carried out with HBSS/HEPES buffer (1×HEPES, Cat. 14065 from Gibco, 20 mM HEPES, Cat. 83264 from SIGMA, 0.1% BSA Cat. 11926 from Invitrogen, pH 7.4
At the assay day cells are washed 3× with assay puffer, 20 μL buffer remaining in the wells after washing. 10 μL Ca6 kit (Cat. R8191 MolecularDevices) loading buffer in HBSS/HEPES is added to the cells and the plates are incubated with lid for 120 minutes at 37°/5% CO2. 10 μL of compound or controls in HBSS/HEPES buffer/5% DMSO from the intermediate dilution plate are carefully added to the wells. […] Finally 10 μL of the agonist AITC 50 μM dissolved in HBSS/HEPES buffer/0.05% DMSO (final concentration 10 μM) is added to the wells followed by an additional read on the FLIPRtetra device for 10 minutes. The area under the signal curve (AUC) after AITC addition is used for IC50/% inhibition calculations
Data Evaluation and Calculation:
Each assay microtiter plate contains wells with vehicle (1% DMSO) controls instead of compound as controls for AITC induced luminescence (100% CTL; high controls) and wells with vehicle controls without AITC as controls for non-specific changes in luminescence (0% CTL; low controls).
The analysis of the data is performed by the calculation of the area under signal curve of the individual wells. Based on this values the % value for the measurement of each substance concentration is calculated (AUC(sample)−AUC(low))*100/(AUC(high)−AUC(low)) using MegaLab software (in house development). The IC50 values are calculated from the % control values using MegaLab software. Calculation: [y=(a−d)/(1+(x/c)^b)+d], a=low value, d=high value; x=conc M; c=IC50 M; b=hill; y=% ctrl

T1 sequence (O75762 whole entry): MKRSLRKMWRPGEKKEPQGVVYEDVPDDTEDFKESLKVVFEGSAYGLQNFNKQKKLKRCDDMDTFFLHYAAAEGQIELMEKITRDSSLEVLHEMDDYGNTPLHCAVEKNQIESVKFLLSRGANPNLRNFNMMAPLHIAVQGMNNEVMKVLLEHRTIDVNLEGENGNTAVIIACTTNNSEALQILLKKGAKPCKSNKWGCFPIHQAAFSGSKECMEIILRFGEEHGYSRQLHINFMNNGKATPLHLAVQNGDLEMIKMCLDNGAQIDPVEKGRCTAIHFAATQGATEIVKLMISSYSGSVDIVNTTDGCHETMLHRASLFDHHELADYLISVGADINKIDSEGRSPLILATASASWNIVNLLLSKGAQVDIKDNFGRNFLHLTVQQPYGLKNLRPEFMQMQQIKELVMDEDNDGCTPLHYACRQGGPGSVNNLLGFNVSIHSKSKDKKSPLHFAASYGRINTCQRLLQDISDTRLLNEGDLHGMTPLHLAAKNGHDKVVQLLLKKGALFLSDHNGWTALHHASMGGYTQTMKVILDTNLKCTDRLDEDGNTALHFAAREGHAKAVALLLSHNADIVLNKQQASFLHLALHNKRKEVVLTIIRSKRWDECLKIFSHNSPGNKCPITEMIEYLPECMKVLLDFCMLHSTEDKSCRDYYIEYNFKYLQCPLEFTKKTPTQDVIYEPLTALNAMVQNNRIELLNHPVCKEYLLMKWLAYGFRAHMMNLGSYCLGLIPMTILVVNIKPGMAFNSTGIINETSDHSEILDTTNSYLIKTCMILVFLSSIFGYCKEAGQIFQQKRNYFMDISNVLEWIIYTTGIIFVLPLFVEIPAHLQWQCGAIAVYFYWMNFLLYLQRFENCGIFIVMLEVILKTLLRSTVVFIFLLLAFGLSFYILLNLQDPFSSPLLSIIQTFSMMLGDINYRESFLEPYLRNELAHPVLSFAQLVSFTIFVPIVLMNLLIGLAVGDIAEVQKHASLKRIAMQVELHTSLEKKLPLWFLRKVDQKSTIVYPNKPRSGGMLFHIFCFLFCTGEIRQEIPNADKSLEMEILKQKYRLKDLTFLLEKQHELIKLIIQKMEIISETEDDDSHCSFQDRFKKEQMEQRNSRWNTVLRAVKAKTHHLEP

Compound	human Hepatocytes [1] [% Qh]	human LM [2] [% Qh]	IC50 (human TRPA1 ion channel) [µM]
NC(=O)c1csc2ncn(Cc3nc(C[C@H](O)c4ccc(Cl)cc4)no3)c(=O)c12 [Example 1, 3-({3-[(2S)-2-(4-chlorophenyl)-2-hydroxyethyl]-1,2,4-oxadiazol-5-yl}methyl)-4-oxo-3H,4H-thieno[2,3-d]pyrimidine-5-carboxamide]	22	<23	0.029
NC(=O)c1csc2ncn(Cc3nc(C[C@H](O)c4ccc(I)cc4)no3)c(=O)c12 [Example 5]	24	<23	0.012
NC(=O)c1csc2ncn(Cc3nc(C[C@H](O)c4cc5cc(F)ccc5o4)no3)c(=O)c12 [Example 6]	22	23	0.012
Cc1ccc([C@@H](O)Cc2noc(Cn3cnc4scc(C(N)=O)c4c3=O)n2)cc1 [Example 7]	26	–	0.022
NC(=O)c1csc2ncn(Cc3nc(C[C@H](O)c4ccc(F)cc4)no3)c(=O)c12 [Example 8]	13	<23	0.057
NC(=O)c1csc2ncn(Cc3nc(C[C@H](O)c4ccc(Cl)s4)no3)c(=O)c12 [Example 9]	61	27	0.077
COc1ccc([C@@H](O)Cc2noc(Cn3cnc4scc(C(N)=O)c4c3=O)n2)cc1 [Example 10]	19	<23	0.087

Now those with a lower IC50 (human TRPA1 ion channel), led by results:

human Hepatocytes [1] [% Qh]	human LM [2] [% Qh]	IC50 (human TRPA1 ion channel) [µM]	Compound
36	43	0.007	NC(=O)c1csc2ncn(Cc3nc(C[C@H](O)c4cc5ccc(F)cc5s4)no3)c(=O)c12 [Example 2]
–	39	0.009	NC(=O)c1csc2ncn(Cc3nc(C[C@H](O)c4cc5ccccc5s4)no3)c(=O)c12 [Example 3]
34	34	0.009	NC(=O)c1csc2ncn(Cc3nc(C[C@H](O)c4cc5cc(Cl)ccc5o4)no3)c(=O)c12 [Example 4]
